Results taken from patent US9339034B2, “Use of thaxtomin for selective control of rice and aquatic based weeds” (MARRONE BIO INNOVATIONS, INC., priority 2009, dated 2016).

Experiments:
DSR (direct-seeded rice) = assay: Greenhouse pot study, effect on crop growth, direct-seeded rice; assay type: in vivo
[1] = test system: TPL (transplanted 'M202' Japonica-type rice); assay: Greenhouse pot study, effect on crop growth, transplanted rice; assay type: in vivo; details: for effect on crop growth (rice): TPL
MAQ = assay: Greenhouse pot study, weed control; assay type: in vivo, Marsilea quadrifolia
Text: (§1) The activity on susceptible and resistant biotypes of Scirpus mucronatus was somewhat weaker (70 to 75%) than that observed for other sedge weeds in this study.

BYG = assay: Greenhouse pot study, weed control; assay type: in vivo, barnyardgrass
EO2 = assay: Greenhouse pot study, weed control; assay type: in vivo, Echinochloa spp.
Text: (§2) Moderate suppression (60%) was noted on Echinochloa colonum at 500 g a.i. per hectare.

MON = assay: Greenhouse pot study, weed control; assay type: in vivo, Monorhoria vaginalis
DSA = assay: Greenhouse pot study, weed control; assay type: in vivo, Heteranthem limosa
CPD = assay: Greenhouse pot study, weed control; assay type: in vivo, Cyperus difformis
Text: as §2

SPZ = assay: Greenhouse pot study, weed control; assay type: in vivo, Sphenoclea zeylanica
WPL = assay: Greenhouse pot study, weed control; assay type: in vivo, Alisma-plamago aquatica
Text: as §2

WCN = assay: Greenhouse pot study, weed control; assay type: in vivo, Eleocharis dulcis
Text: as §1

[2] = test system: most of the Echinochloa spp.; assay: Greenhouse pot study, weed control; assay type: in vivo; details: up to the highest rate tested; 1000 g a.i. per hectare
Text: as §2

transplanted rice = assay: First study, crop safety; assay type: in vivo; details: all rates tested (64 to 1000 g a.i. per hectare)
barnyardgrass = assay: First study, weed control; assay type: in vivo; details: 500-1000 g a.i. per hectare
Ammania sp = assay: Pot study, spray of pure thaxtomin A solutions, % control; assay type: in vivo, redstem; Ammannia spp.
Method: (§3) A pot study was conducted to test the phytotoxicity of thaxtomin A on broadleaved, sedge and grass weeds. Seeds of two most common broadleaf (redstem; Ammannia spp. and common waterplantain; Alisma plantago-aquatica), sedge (smallflower umbrella sedge; Cyperus diiformis) and grass (sprangletop: Leptochloa uninervia) weeds each were planted in a plastic pots filled with heavy clay soil. The less than 1-inch tall plants grown under growth lights (12-h light/12-h dark) at 28° C. were sprayed with pure thaxtomin A solutions containing 0.05, 0.1, 0.2, and 0.4 mg thaxtomin A per mL of solvent (4% ethanol and 0.2% non-ionic surfactant). A solution of 4% ethanol+0.2% non-ionic surfactant without thaxtomin A was used as a control treatment. Same treatments were applied to three-inch tall rice plants grown submerged under growth lights at 28° C. […] All treatments were applied in three replicates. Treated plants were kept at 28° C. under growth lights and observed at three time points—5, 12 and 21 days after treatment—for visual symptoms of phytotoxicity and % control.

Cyperus sp = assay: as above; assay type: in vivo, smallflower umbrella sedge; Cyperus diiformis
Method: as §3

Leptochloa sp = assay: as above; assay type: in vivo, sprangletop: Leptochloa uninervia
Method: as §3

[3] = test system: mono and dicotyledonous seedlings; details: cited from earlier work

**Q.** Which results are given for `CN1C(=O)[C@](O)(Cc2cccc(O)c2)N(C)C(=O)[C@@H]1Cc1c[nH]c2cccc([N+](=O)[O-])c12` [thaxtomin A]?
**A.** effect on crop growth (rice) (DSR (direct-seeded rice); 64 g/ha): 10%; effect on crop growth (rice) (DSR (direct-seeded rice); 125 g/ha): 10%; effect on crop growth (rice) (DSR (direct-seeded rice); 250 g/ha): 10%; effect on crop growth (rice) (DSR (direct-seeded rice); 500 g/ha): 15%; effect on crop growth (rice) (DSR (direct-seeded rice); 1000 g/ha): 40%; selectivity on transplanted rice ([1]; 1000 g a.i.): excellent selectivity; effect on crop growth (rice) ([1]; 64 g/ha): 0%; effect on crop growth (rice) ([1]; 125 g/ha): 0%; effect on crop growth (rice) ([1]; 250 g/ha): 0%; effect on crop growth (rice) ([1]; 500 g/ha): 0%; effect on crop growth (rice) ([1]; 1000 g/ha): 10%; rice selectivity ([1]; transplanted 'M202' Japonica-type rice, 500 g a.i. per hectare): excellent rice selectivity; % control (MAQ; 64 g/ha): 20%; % control (MAQ; 125 g/ha): 25%; % control (MAQ; 250 g/ha): 40%; % control (MAQ; 500 g/ha): 70%; % control (MAQ; 1000 g/ha): 85%; % control (BYG; 64 g/ha): 0%; % control (BYG; 125 g/ha): 0%; % control (BYG; 250 g/ha): 15%; % control (BYG; 500 g/ha): 30%; % control (BYG; 1000 g/ha): 40%; % control (EO2; EO2, 64 g/ha): 0%; % control (EO2; EO2, 125 g/ha): 0%; % control (EO2; EO2, 250 g/ha): 20%; % control (EO2; EO2, 500 g/ha): 20%; % control (EO2; EO2, 1000 g/ha): 30%; % control (MON; 64 g/ha): 0%; % control (MON; 125 g/ha): 100%; % control (MON; 250 g/ha): 100%; % control (MON; 500 g/ha): 100%; % control (MON; 1000 g/ha): 100%; % control (DSA; 64 g/ha): 0%; % control (DSA; 125 g/ha): 100%; % control (DSA; 250 g/ha): 100%; % control (DSA; 500 g/ha): 100%; % control (DSA; 1000 g/ha): 100%; % control (CPD; 64 g/ha): 0%; % control (CPD; 125 g/ha): 85%; % control (CPD; 250 g/ha): 100%; % control (CPD; 500 g/ha): 100%; % control (CPD; 1000 g/ha): 100%; % control (SPZ; 64 g/ha): 0%; % control (SPZ; 125 g/ha): 90%; % control (SPZ; 250 g/ha): 90%; % control (SPZ; 500 g/ha): 100%; % control (SPZ; 1000 g/ha): 100%; % control (WPL; 64 g/ha): 0%; % control (WPL; 125 g/ha): 70%; % control (WPL; 250 g/ha): 95%; % control (WPL; 500 g/ha): 100%; % control (WPL; 1000 g/ha): 100%; % control (WCN; 125 g/ha): 35%; % control (WCN; 250 g/ha): 85%; % control (WCN; 500 g/ha): 85%; % control (WCN; 1000 g/ha): 95%; activity on Echinochloa spp. [2]: weakness; safety to transplanted rice (transplanted rice): complete safety; activity on barnyardgrass (barnyardgrass): moderate activity; % control (Ammania sp; Ammania sp, 5 DAYS, 0.05 mg/mL in 4% ethanol): 0%; % control (Ammania sp; Ammania sp, 5 DAYS, 0.1 mg/mL in 4% ethanol): 0%; % control (Ammania sp; Ammania sp, 5 DAYS, 0.2 mg/mL in 4% ethanol): 0%; % control (Ammania sp; Ammania sp, 5 DAYS, 0.4 mg/mL in 4% ethanol): 0%; % control (Ammania sp; Ammania sp, 12 DAYS, 0.05 mg/mL in 4% ethanol): 0a %; % control (Ammania sp; Ammania sp, 12 DAYS, 0.1 mg/mL in 4% ethanol): 0a %; % control (Ammania sp; Ammania sp, 12 DAYS, 0.2 mg/mL in 4% ethanol): 0a %; % control (Ammania sp; Ammania sp, 12 DAYS, 0.4 mg/mL in 4% ethanol): 3b %; % control (Ammania sp; Ammania sp, 21 DAYS, 0.05 mg/mL in 4% ethanol): 63b %; % control (Ammania sp; Ammania sp, 21 DAYS, 0.1 mg/mL in 4% ethanol): 53b %; % control (Ammania sp; Ammania sp, 21 DAYS, 0.2 mg/mL in 4% ethanol): 70b %; % control (Ammania sp; Ammania sp, 21 DAYS, 0.4 mg/mL in 4% ethanol): 75b %; % control (Ammania sp; red stem (Ammania sp.), highest concentration (0.4 mg/mL)): 75-80%; % control (Cyperus sp; Cyperus sp, 5 DAYS, 0.05 mg/mL in 4% ethanol): 5a %; % control (Cyperus sp; Cyperus sp, 5 DAYS, 0.1 mg/mL in 4% ethanol): 12a %; % control (Cyperus sp; Cyperus sp, 5 DAYS, 0.2 mg/mL in 4% ethanol): 16a %; % control (Cyperus sp; Cyperus sp, 5 DAYS, 0.4 mg/mL in 4% ethanol): 25a %; % control (Cyperus sp; Cyperus sp, 12 DAYS, 0.05 mg/mL in 4% ethanol): 15a %; % control (Cyperus sp; Cyperus sp, 12 DAYS, 0.1 mg/mL in 4% ethanol): 75b %; % control (Cyperus sp; Cyperus sp, 12 DAYS, 0.2 mg/mL in 4% ethanol): 77b %; % control (Cyperus sp; Cyperus sp, 12 DAYS, 0.4 mg/mL in 4% ethanol): 73b %; % control (Cyperus sp; Cyperus sp, 21 DAYS, 0.05 mg/mL in 4% ethanol): 53b %; % control (Cyperus sp; Cyperus sp, 21 DAYS, 0.1 mg/mL in 4% ethanol): 90c %; % control (Cyperus sp; Cyperus sp, 21 DAYS, 0.2 mg/mL in 4% ethanol): 88c %; % control (Cyperus sp; Cyperus sp, 21 DAYS, 0.4 mg/mL in 4% ethanol): 83c %; % control (Cyperus sp; sedge (Cyperus difformis), highest concentration (0.4 mg/mL)): 75-80%; % control (Leptochloa sp; 5 DAYS, 0.05 mg/mL in 4% ethanol): 0%; % control (Leptochloa sp; 5 DAYS, 0.1 mg/mL in 4% ethanol): 0%; % control (Leptochloa sp; 5 DAYS, 0.2 mg/mL in 4% ethanol): 0%; % control (Leptochloa sp; 5 DAYS, 0.4 mg/mL in 4% ethanol): 0%; % control (Leptochloa sp; 12 DAYS, 0.05 mg/mL in 4% ethanol): 0a %; % control (Leptochloa sp; 12 DAYS, 0.1 mg/mL in 4% ethanol): 2a %; % control (Leptochloa sp; 12 DAYS, 0.2 mg/mL in 4% ethanol): 10b %; % control (Leptochloa sp; 12 DAYS, 0.4 mg/mL in 4% ethanol): 10b %; % control (Leptochloa sp; 21 DAYS, 0.05 mg/mL in 4% ethanol): 0a %; % control (Leptochloa sp; 21 DAYS, 0.1 mg/mL in 4% ethanol): 3a %; % control (Leptochloa sp; 21 DAYS, 0.2 mg/mL in 4% ethanol): 12a %; % control (Leptochloa sp; 21 DAYS, 0.4 mg/mL in 4% ethanol, listed as Thaxtomin): 17a %; % control (Leptochloa sp; 21 DAYS, 0.4 mg/mL in 4% ethanol, listed as Thaxtomin A): 17%; concentration causing cell swelling, necrosis and growth inhibition [3]: less than 1 uM
